{"source": "paper PMC4995692", "about": "“An assay to measure poly(ADP ribose) glycohydrolase (PARG) activity in cells” (F1000Research, 2016)", "key": {"[1]": {"system": "control Hela cells", "assay": "Growth inhibition by MMS in control Hela cells", "assay_type": "cell-based", "conditions": "Homo sapiens, 120 h, 5 days"}, "[2]": {"system": "H1048 cells", "assay": "SRB assay, MMS sensitivity of H1048", "assay_type": "cell-based", "conditions": "Homo sapiens, NCI-H1048, 72 h", "description": "(§1) Cells in 96-well plates were fixed with the addition of 100 µL ice cold 10% trichloroacetic acid to the media. After 1 h at 4°C, the cells were washed twice with PBS and left to dry. Once dry, 100 µL 0.2% sulforhodamine B (SRB) was add to each well and incubated for 15 min at room temperature. The cells were washed three times with 200 µL 1% acetic acid and then dried. To solubilise the remaining SRB, 200 µL 10 mM Tris pH10.5 was added to each well and the plate incubated with agitation for 10 min. Absorbance at 520 nm was measured on a plate reader (Biotek, Swindon, UK)."}, "[3]": {"system": "Murine embryonic fibroblasts (MEFs)", "assay": "SRB assay, MMS sensitivity of MEFs", "assay_type": "cell-based", "conditions": "Mus musculus, Fibroblast, 72 h", "description": "as §1"}, "[4]": {"system": "PAR chains in PARG KD cells", "assay": "PAR chain detection after MMS, preliminary western blot", "assay_type": "cell-based, human", "conditions": "250 µg/mL MMS"}, "[5]": {"system": "nuclear PAR chains in Hela cells", "assay_type": "cell-based, human", "conditions": "250 µg/mL MMS", "description": "Exponentially growing HeLa cells were trypsinized and resuspended in complete media before being filtered through a […] cell strainer (#352340, BD Falcon, Oxford, UK). Cells were then counted using a Muse cell counter (Merck Millipore, Hertfordshire, UK) and seeded in 30 µL of media at 4×10 ^4 cells/mL in Greiner 384-well plates (#781091, Greiner Bio-One, Stonehouse, UK) and placed in a cell culture incubator. After 16–24 h the plates were centrifuged briefly at 164× g and the cells dosed with compound(s) or vehicle (DMSO) control using an Echo 550 (Labcyte, Dublin, Ireland). […] After 1 h the plate was re-spun and cells co-dosed with different concentrations of MMS (50–250 µg/mL final concentration) or DMSO using the Echo 550 and incubated for a given time (30 min–2 h) at 37°C in a cell culture incubator. […] Following three washes with PBS, the plates were sealed and images captured using a 10× objective on a CellInsight (ThermoFisher) and analysed using Cellomics Scan compartmental analysis software (ThermoFisher). A threshold determined by assessing the signal in DMSO treated cells was applied to the pixel intensity and a Box Detection application was used to detect objects smaller than five pixels in radius within the nucleus. […]"}, "[6]": {"system": "SW620 cells", "assay": "SW620 proliferation after MMS (Hoechst stain)", "assay_type": "cell-based, human", "conditions": "MMS 72 h"}, "[7]": {"system": "PARG KD Hela cells (PARG Silencix)", "assay": "Growth inhibition by MMS in PARG KD Hela cells", "assay_type": "cell-based", "conditions": "Homo sapiens, 120 h, 5 days"}, "[8]": {"molecular_target": "PARG (Homo sapiens, UniProt Q86W56)", "sequence (Q86W56 whole entry)": "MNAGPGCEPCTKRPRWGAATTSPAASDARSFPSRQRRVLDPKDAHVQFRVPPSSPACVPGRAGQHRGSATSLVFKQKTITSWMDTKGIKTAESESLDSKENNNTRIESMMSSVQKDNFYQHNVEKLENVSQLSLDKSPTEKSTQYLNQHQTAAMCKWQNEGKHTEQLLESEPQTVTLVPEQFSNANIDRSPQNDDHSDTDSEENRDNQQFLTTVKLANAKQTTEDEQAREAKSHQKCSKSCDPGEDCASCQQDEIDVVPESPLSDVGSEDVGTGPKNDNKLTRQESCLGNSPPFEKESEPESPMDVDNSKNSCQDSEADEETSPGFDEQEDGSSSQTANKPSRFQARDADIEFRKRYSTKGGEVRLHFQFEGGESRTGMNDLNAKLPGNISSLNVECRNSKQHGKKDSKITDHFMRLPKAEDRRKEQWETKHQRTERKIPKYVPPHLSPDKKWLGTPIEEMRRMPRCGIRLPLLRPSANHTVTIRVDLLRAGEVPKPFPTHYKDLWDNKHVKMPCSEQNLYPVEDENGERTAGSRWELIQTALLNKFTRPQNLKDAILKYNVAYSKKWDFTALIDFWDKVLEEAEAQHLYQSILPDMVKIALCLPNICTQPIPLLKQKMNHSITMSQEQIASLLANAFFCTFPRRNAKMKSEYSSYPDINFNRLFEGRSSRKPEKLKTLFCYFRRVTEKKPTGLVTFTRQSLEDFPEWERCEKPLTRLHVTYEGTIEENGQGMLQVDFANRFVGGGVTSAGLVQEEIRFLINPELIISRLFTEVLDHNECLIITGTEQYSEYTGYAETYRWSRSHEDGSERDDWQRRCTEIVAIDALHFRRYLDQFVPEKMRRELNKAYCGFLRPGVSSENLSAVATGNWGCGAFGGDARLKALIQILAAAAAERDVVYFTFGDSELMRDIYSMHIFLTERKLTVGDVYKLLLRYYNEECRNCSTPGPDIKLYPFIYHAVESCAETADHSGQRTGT", "assay": "PAR chain assay in SW620 cells with temozolomide", "assay_type": "cell-based"}}, "note": "“Also recorded” adds a separate entry of the source.", "data": [{"molecule": "COS(C)(=O)=O", "note": "[MMS, Methylmethanesulfonate]", "values": [{"measurement": "IC50", "setting": "[1]", "result": 16.5, "unit": "µg/mL"}, {"measurement": "IC50", "setting": "[2]", "result": 9, "unit": "µM"}, {"measurement": "IC50", "setting": "[3]", "result": 14.5, "unit": "µM"}, {"measurement": "time of peak of PAR chains after MMS addition", "setting": "[4]", "result": "approximately 20 min"}, {"measurement": "time of maximum nuclear PAR signal", "setting": "[5]", "result": 25, "unit": "min"}, {"measurement": "proliferation", "setting": "[6]", "result": "dose-dependent decrease"}, {"measurement": "IC50", "setting": "[7]", "result": 6.2, "unit": "µg/mL"}]}, {"molecule": "Cn1nnc2c(C(N)=O)ncn2c1=O", "note": "[TMZ, Temozolomide]", "values": [{"measurement": "PAR signal", "setting": "[8]; one hour after TMZ alone", "result": "no PAR signal detectable"}]}, {"molecule": "O=C(c1cc(Cc2n[nH]c(=O)c3ccccc23)ccc1F)N1CCN(C(=O)C2CC2)CC1", "note": "[olaparib]", "values": [{"measurement": "PAR signal", "setting": "[8]; increasing concentrations of compound, 150 µg/mL temozolomide for 1 h", "result": "did not lead to any increase; also recorded: no effect"}, {"measurement": "PAR signal", "setting": "[8]; pre-treated at 300 nM, 1 h temozolomide 1.5-200 µg/mL", "result": "no effect"}]}]}
